Reference: paper PMC7481290, “Halogenation as a tool to tune antimicrobial activity of peptoids” (Scientific Reports, 2020)
In brackets after ≈: the same amount, converted by molar mass. Non-standard residues stand in square brackets, D forms with d. Residues, ends and D or L forms follow the SMILES beside them. Gly(Nα-4-Cl-benzyl) = O=C(O)CNCc1ccc(Cl)cc1; N(4-F-Bzl)Gly = O=C(O)CNCc1ccc(F)cc1; NBzl(4-I)Gly = O=C(O)CNCc1ccc(I)cc1; Nlys = NCCCCNCC(=O)O

Experiments:
S. aureus ATCC 25923 = assay type: cell-based, Staphylococcus aureus; settings: for Minimal inhibitory concentration SA^a: ATCC 25923, 18 h
Experimental: (§1) Bacterial growth inhibition was determined by using broth microdilution according to the Clinical Laboratory Standards Institute[43]. The antibacterial activity of peptoids was tested against S. aureus ATCC 25923, ATCC29213, and methicillin resistant S. aureus USA 300, methicillin resistant S. epidermidis ATCC 51625, a biofilm producing methicillin resistant S. epidermidis ET-024[44], P. aeruginosa Pa01 (H103), and E. coli ATCC 25922. Bacteria, grown on agar plates for 18 h at 37 °C, were diluted to ∼1 × 10^8 CFU/mL in Mueller‐Hinton Broth II (MHB II). Twofold serial dilutions of peptoids in MHB II were inoculated with bacteria to achieve a final concentration of 5 × 10^5 CFU/mL in polypropylene 96 U‐well microtiter plates (Corning 3,897; ThermoFisher Scientific, Roskilde), followed by incubation at 37 °C in ambient air for 18 h. The MIC values were determined as the lowest concentration showing no visible bacterial growth. Experiments were performed twice (in technical triplicates) on 2 different days.

[1] = test system: Methicillin-resistant S. aureus USA 300; assay type: cell-based, Staphylococcus aureus; settings: USA 300, 18 h
Experimental: as §1

S. aureus ATCC 29213 = assay type: cell-based, Staphylococcus aureus; settings: ATCC 29213, 18 h
Experimental: as §1

[2] = test system: P. aeruginosa PA01 (H103); assay type: cell-based, Pseudomonas aeruginosa; settings: H103, 18 h
Experimental: as §1

[3] = Critical aggregation concentration from SAXS fit analysis; assay type: physicochemical
Experimental: SAXS experiments of the 10-mer peptoids were performed at the automated BM29 bioSAXS beamline at the European Synchrotron Radiation Facility (ESRF) in Grenoble, France[45]. The data was obtained using an energy of 12.5 keV and a detector distance of 2.87 m, covering a q range ( q=4πsin(θ/2)/λ ), where θ is the scattering angle and λ is the X-ray wavelength) of about 0.0047 to 0.5 Å^−1. The data set was calibrated to an absolute intensity scale using water as a primary standard. 40 µL samples were run through a capillary using the flow mode of the automated sample changer. SAXS data was collected in ten successive frames of 0.5 s each to monitor radiation damage and the data reduction was done using the standard tool at BM29[47].
The SAXS experiments on the fully iodinated 6-, 8-, and 12-mers to determine the CAC of the compounds were performed using a Bruker NANOSTAR equipped with a microfocus X-ray source (IμS Cu, Incoatec, Germany) and a VÅNTEC-2000 detector. Raw scattering data was calibrated to absolute intensity scale using water as a primary standard and radially averaged in order to obtain the 1D scattered intensity profile as a function of the scattering vector, with a wavelength of 1.54 Å.
The modelling fit analysis of the scattering data is explained in detail in the supplementary information.

[4] = test system: Methicillin-resistant S. epidermidis ATCC 51625; assay type: cell-based, Staphylococcus epidermidis; settings: for Minimal inhibitory concentration MRSE^e: ATCC 51625, 18 h
Experimental: as §1

[5] = test system: Methicillin-resistant S. epidermidis ET-024; assay type: cell-based, Staphylococcus epidermidis; settings: for Minimal inhibitory concentration MRSE^d: Methicillin-resistant ET-024, 18 h
Experimental: as §1

E. coli ATCC 25922 = assay type: cell-based, Escherichia coli; settings: ATCC 25922, 18 h
Experimental: as §1

Structure (SMILES)	Minimal inhibitory concentration SA^a (S. aureus ATCC 25923)	Minimal inhibitory concentration MRSA^c [1]	Minimal inhibitory concentration SA^b (S. aureus ATCC 29213)	Minimal inhibitory concentration PA^g [2]	critical aggregation concentration (CAC) [3]	Minimal inhibitory concentration MRSE^e [4]	Minimal inhibitory concentration MRSE^d [5]	fold increase of activity against MRSE ([5]; versus non-halogenated control of same length, values match ET-024)	Minimal inhibitory concentration EC^f (E. coli ATCC 25922)	fold increase of activity against S. aureus (S. aureus ATCC 25923; versus non-halogenated control of same length)	MIC against MRSE ([4]; text b15, strain not named, values match ATCC 51625)	fold increase of activity against MRSE ([4]; versus non-halogenated control 1, values match ATCC 51625)
NCCCCNCC(=O)N(CC(=O)N(CCCCN)CC(=O)N(CC(=O)N(CCCCN)CC(=O)N(CC(=O)N(CCCCN)CC(=O)N(CC(N)=O)Cc1ccc(I)cc1)Cc1ccc(I)cc1)Cc1ccc(I)cc1)Cc1ccc(I)cc1 [Compound 14] (H-[Nlys][NBzl(4-I)Gly][Nlys][NBzl(4-I)Gly][Nlys][NBzl(4-I)Gly][Nlys][NBzl(4-I)Gly]-NH2)	8 µg/mL (≈ 4.93 µM)	4 µg/mL (≈ 2.47 µM)	16 µg/mL (≈ 9.86 µM)	> 512 µg/mL	1.4 mg/mL	4 µg/mL (≈ 2.47 µM)	2 µg/mL (≈ 1.23 µM)	128 fold	64 µg/mL (≈ 39.5 µM)	–	–	–
NCCCCNCC(=O)N(CC(=O)N(CCCCN)CC(=O)N(CC(=O)N(CCCCN)CC(=O)N(CC(=O)N(CCCCN)CC(=O)N(CC(=O)N(CCCCN)CC(=O)N(CC(N)=O)Cc1ccc(F)cc1)Cc1ccc(F)cc1)Cc1ccc(F)cc1)Cc1ccc(F)cc1)Cc1ccc(F)cc1 [Compound 20] (H-[Nlys][N(4-F-Bzl)Gly][Nlys][N(4-F-Bzl)Gly][Nlys][N(4-F-Bzl)Gly][Nlys][N(4-F-Bzl)Gly][Nlys][N(4-F-Bzl)Gly]-NH2)	64 µg/mL (≈ 43.1 µM)	32 µg/mL (≈ 21.6 µM)	64 µg/mL (≈ 43.1 µM)	256 µg/mL (≈ 173 µM)	> 5 mg/mL	8 µg/mL (≈ 5.39 µM)	4 µg/mL (≈ 2.7 µM)	–	128 µg/mL (≈ 86.3 µM)	–	–	–
NCCCCNCC(=O)N(CC(=O)N(CCCCN)CC(=O)N(CC(=O)N(CCCCN)CC(=O)N(CC(N)=O)Cc1ccc(I)cc1)Cc1ccc(I)cc1)Cc1ccc(I)cc1 [Compound 5] (H-[Nlys][NBzl(4-I)Gly][Nlys][NBzl(4-I)Gly][Nlys][NBzl(4-I)Gly]-NH2)	8 µg/mL (≈ 6.55 µM)	4 µg/mL (≈ 3.28 µM)	4 µg/mL (≈ 3.28 µM)	> 512 µg/mL	2.8 mg/mL	–	4 µg/mL (≈ 3.28 µM)	–	64 µg/mL (≈ 52.4 µM)	> 64 fold	2 µg/mL (≈ 1.64 µM)	256 fold
NCCCCNCC(=O)N(CC(=O)N(CCCCN)CC(=O)N(CC(=O)N(CCCCN)CC(=O)N(CC(=O)N(CCCCN)CC(=O)N(CC(=O)N(CCCCN)CC(=O)N(CC(N)=O)Cc1ccc(Cl)cc1)Cc1ccc(Cl)cc1)Cc1ccc(Cl)cc1)Cc1ccc(Cl)cc1)Cc1ccc(Cl)cc1 [Compound 21] (H-[Nlys][Gly(Nα-4-Cl-benzyl)][Nlys][Gly(Nα-4-Cl-benzyl)][Nlys][Gly(Nα-4-Cl-benzyl)][Nlys][Gly(Nα-4-Cl-benzyl)][Nlys][Gly(Nα-4-Cl-benzyl)]-NH2)	2 µg/mL (≈ 1.28 µM)	2 µg/mL (≈ 1.28 µM)	2 µg/mL (≈ 1.28 µM)	> 512 µg/mL	> 5 mg/mL	2 µg/mL (≈ 1.28 µM)	1 µg/mL (≈ 0.639 µM)	–	64 µg/mL (≈ 40.9 µM)	–	–	–
